From PMC11555231 (Nature Communications, 2024)
Bridge positions count the residues as written; N and C are the ends. Peptide text beside a SMILES is read from it.

Legend:
[1] = test system: cellular PADI4 in hPADI4-stable mES cell extracts; experiment: Cell lysate activity assay, H3Cit2 immunoblot, with or without pre-incubation before calcium; format: biochemical, mouse; conditions: inhibitor added 20 mins prior (pre-incubation) or concurrent with calcium
Source text: Neutrophil samples were boiled in a sodium dodecyl sulphate (SDS) buffer containing dithiothreitol (DTT) and run on a polyacrylamide gel electrophoresis (SDS-PAGE) using Criterion TGX precast gels (Any-KD; Bio-Rad Laboratories). Proteins were then transferred to a PVDF membrane (Bio-Rad Laboratories) via semi-dry transfer. The membrane was blocked with 5% BSA (Fisher Scientific) in Tris-buffered saline with 0.1% Tween-20 (TBS-T). Levels of citrullinated histone H3, total H3 and myeloperoxidase (MPO) were assessed by incubating membranes in either anti-histone H3 citrulline R2 + R8 + R17 (Abcam; ab5103 1:1000), anti-histone H3 (Millipore; 07-690 1:10000) or anti-MPO (DAKO; A0398 1:2500) overnight at 4 °C, respectively. For cell lysate-based assays and pull-down assays, membranes were incubated as above with anti-hPADI4 (Abcam; ab50332; 1:1000 in 5% BSA/TBS-T), anti-Bcr (Cell Signalling #3902S; 1:1000 in 3% milk/TBS-T) and anti-Impdh2 (Cell Signalling #57068S; 1:1000 in 3% milk/TBS-T). Membranes were washed in 0.1% TBS-T and subsequently incubated with goat anti-rabbit HRP or anti-goat (Fisher Scientific) for 1 h, followed by final washes in 0.1% TBS-T. Membranes were imaged with enhanced chemiluminescent substrate (ECL) (Thermo Fisher) on a Bio-Rad imager.
Supplementary Figure 2. PADI4_3 is a potent and selective hPADI4 inhibitor. A. […]

HaLo-GFP-mito HeLa cells = experiment: Chloroalkane penetration assay (CAPA); format: in vitro ADME; conditions: CAPA, chloroalkane-tagged peptide, 4 h in Opti-MEM, 37 °C, chase HaLo-Tag TMR ligand 5 µM 15 min, flow cytometry; mean ± SEM of three independent experiments
Experimental: Following the addition of chloroacetyl-NHS to the N-terminal amino group, Cys(mmt) was selectively deprotected using 1% TFA, 5% triisopropylsilane in DCM (30 min, RT). Peptides were then cyclised on resin using 2% diisopropylethylamine in DMF overnight. Following cyclisation, Lys(ivDde) was deprotected using 2% hydrazine in DMF. The resin was then washed (3 x DCM, 3 x DMF) before on-resin coupling of chloroalkane carboxylic acid was performed on the lysine side chain using Hexafluorophosphate Azabenzotriazole Tetramethyl Uronium / diisopropylethylamine in DMF for 2 h. Global deprotection and purification were then carried out as described above. Chloroalkane carboxylate was synthesised as previously described.
CAPA assays were performed following the protocol published in ref. [51]. In brief, 40,000 HaLo- GFP-mito HeLa cells were seeded in a 96-well plate. Twenty-four hours later, cells were treated with different concentrations of chloroalkane-tagged peptides (100 µM to 200 nM for PADI4_3 and PADI4_3i and 50 µM to 100 nM for PADI4_11 and PADI4_11i) for 4 h in Opti-MEM. Media containing peptides was then removed, and cells were incubated with Opti-MEM (Gibco) for 15 min. After that time, the wash was removed, and cells were chased with HaLo-Tag TMR ligand (5 µM, Promega) in Opti-MEM for 15 min. The ligand was then removed, and cells were incubated with Opti-MEM for 30 min. Cells were then trypsinised, resuspended in phosphate-buffered saline (PBS) with 0.5% FBS and analysed using a benchtop flow cytometer (MACSQuant® VYB Flow cytometer Milteny Biotec). For each well, 10000 GFP positive single cells were analysed (gating workflow shown in Supplementary Fig. 18), and TMR mean fluorescence was normalised against a positive control (cells treated with HaLo-Tag TMR ligand but no peptide) and a negative control (non-treated cells). Analysis was performed using FlowJo (LCC) software and Prism GraphPad (Dotmatics). Data were presented as the average ± standard error of three independent replicates.

[2] = test system: calcium influx into cells; experiment: Calcium imaging with Calbryte 520 AM; format: cell-based; conditions: Calbryte intensity, 25 µM peptide, 60 min
Experimental: Calbryte™ 520 AM dye (https://www.aatbio.com/products/calbryte-520-am) was used for quantification of calcium influx into cells. Cells were seeded onto 10 mm optical imaging plates at 10^5 cells per dish and allowed to attach overnight. Cells were stained with 10 μM Calbryte dye in normal growth medium for 1 h, 37 °C, 5% CO2, washed once with cell culture medium and imaged using a Nikon Wide-field microscope. A time series was performed, with a 488 laser image taken every second. After 1 min of imaging (baseline readings), PADI4_11 (25 μM), PADI4_11i (25 μM) or calcium ionophore (10 μM, as positive control) were added, and cells were imaged for a further 60 min. Analysis was done using imageJ —region of interest (ROI) were taken for each cell at each time point using ROI manager. Background values (ROI with no cells) were taken at each time point and removed from the same background reading (i.e. ROI at 1 second with cells minus ROI at 1 s background value). An average of at least ten cells was taken for each condition and each average data point was divided by the initial average data point for that cell, to obtain overall response.

hPADI4-stable mES cells = experiment: High content microscopy of citrullinated histone H3 (H3Cit) in hPADI4-stable mES cells; format: cell-based, mouse; conditions: mean H3Cit intensity, peptide 1 h, without any other activating stimulus
Experimental: HaLo-GFP-mito HeLa cells were grown in DMEM (Gibco) supplemented with 10% foetal bovine serum (FBS), penicillin/streptomycin (100 µg/ml) and puromycin (1 µg/ml) at 37 °C, 5% CO2. HaLo-GFP-mito HeLa cell line[82] was profiled by short tandem repeat analysis (STR) and tested negative for mycoplasma by the Cell Services Technology Platform at the Francis Crick Institute. E14 –mouse embryonic stem cells (Cambridge Stem Cell Institute, UK) were cultured in plates coated with 1% gelatine in GMEM supplemented with 10% foetal calf serum (FCS) batch-tested for ES cell culture (Gibco), 0.1 mM non-essential amino acids, 2 mM L-glutamine, 1 mM sodium pyruvate, 0.1 mM β-mercaptoethanol and 50 ng/mL leukaemia inhibitory factor (LIF) (ESGRO, Millipore). For PADI4 activation, cells were cultured in GMEM containing 10% knockout serum replacement (KSR, Life Technologies), 1% FCS batch-tested for ES cell culture (Gibco), 0.1 mM non-essential amino acids, L-glutamine, 1 mM sodium pyruvate, 0.1 mM β-mercaptoethanol, 50 ng/mL LIF (ESGRO, Millipore), 1 μM PD0325901 (AxonMedChem) and 3 μM CHIR99021 (AxonMedChem). For the generation of E14 mES stably expressing human PADI4 (hPADI4-stable), human PADI4 cDNA was inserted into ES E14 cells using the piggyBac transposon system. The Gateway system was used to clone human PADI4 into the piggyBac vector using primers PADI4_AttB1_F and PADI4_AttB2_R (Table S4). pPB-CAG-CTRL (empty vector) or pPB-CAG-hPADI4 vectors […] were transfected with the piggyBac transposase (pPBase) expression vector, pCAGPBase […], by lipofection according to the manufacturer’s instructions (Lipofectamine 2000, Invitrogen). E14 cells constitutively expressing the hygromycin resistance gene and human PADI4 were selected and expanded in media containing […] hygromycin.
E14 cells were seeded onto 96-well PerkinElmer cell carrier ultra plates (Phenoplates) coated with 0.1% gelatine, at 25,000 cells per well and grown overnight at 37 °C, 5% CO2. Outer wells were excluded but medium was added to minimise any edge effects. […]

CP50 (HaLo-GFP-mito HeLa cells)	Compound	inhibition of histone 3 citrullination (H3Cit) in cell lysates containing active cellular PADI4 [1]	intracellular calcium levels (calcium influx) [2]	PADI4 activation in cells (in words) (hPADI4-stable mES cells)
	COc1cc(C(=O)N2CC[C@@H](O)[C@@H](N)C2)cc2nc(-c3cc4ccccc4n3CC3CC3)n(C)c12 [GSK484]	required pre-incubation to be active		
2.0 ± 0.5 µM	CC(C)C[C@H](NC(=O)[C@H](CCC(N)=O)NC(=O)[C@H](CC(C)C)NC(=O)[C@@H](NC(=O)[C@H](CCC(N)=O)NC(=O)[C@H](CCCNC(=N)N)NC(=O)[C@H](Cc1ccc(O)cc1)NC(=O)[C@H](CCCNC(=N)N)NC(=O)[C@@H]1CSCC(=O)N[C@@H](Cc2ccc(O)cc2)C(=O)N[C@@H](CO)C(=O)N[C@@H](CCC(=O)O)C(=O)N1)C(C)C)C(N)=O [PADI4_11i] ({CH2CO}-YSECRYRQVLQL-NH2; thioether N-4)		neither PADI4_11, nor PADI4_11i, were responsible for increased intracellular calcium levels	does not have the same effect
